Measured values from patent publication US8835472B2, “Compounds, pharmaceutical compositions and uses thereof” (Boehringer Ingelheim International GmbH, priority 2010, dated 2014).

Biological target: human ACC2 (Homo sapiens (Human), UniProt O00763)
Experiment: ACC2 assay, spectrophotometric 384 well assay (NADH-linked, coupled lactate dehydrogenase/pyruvate kinase reaction)
Assay type: biochemical
Conditions: hACC2 construct lacking the 128 N-terminal amino acids; 25° C., 340 nm over 15 minutes
In short: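 N-terminally truncated human ACC2 (lacking 128 residues) expressed in insect cells; coupled PK/LDH read-out of ADP as NADH loss at 340 nm, 15 min, 25 °C. Tris pH 7.5 with citrate and KHCO3; 200 μM acetyl-CoA, 500 μM ATP, 1% DMSO.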

Chain of human ACC2 (O00763 129-2458): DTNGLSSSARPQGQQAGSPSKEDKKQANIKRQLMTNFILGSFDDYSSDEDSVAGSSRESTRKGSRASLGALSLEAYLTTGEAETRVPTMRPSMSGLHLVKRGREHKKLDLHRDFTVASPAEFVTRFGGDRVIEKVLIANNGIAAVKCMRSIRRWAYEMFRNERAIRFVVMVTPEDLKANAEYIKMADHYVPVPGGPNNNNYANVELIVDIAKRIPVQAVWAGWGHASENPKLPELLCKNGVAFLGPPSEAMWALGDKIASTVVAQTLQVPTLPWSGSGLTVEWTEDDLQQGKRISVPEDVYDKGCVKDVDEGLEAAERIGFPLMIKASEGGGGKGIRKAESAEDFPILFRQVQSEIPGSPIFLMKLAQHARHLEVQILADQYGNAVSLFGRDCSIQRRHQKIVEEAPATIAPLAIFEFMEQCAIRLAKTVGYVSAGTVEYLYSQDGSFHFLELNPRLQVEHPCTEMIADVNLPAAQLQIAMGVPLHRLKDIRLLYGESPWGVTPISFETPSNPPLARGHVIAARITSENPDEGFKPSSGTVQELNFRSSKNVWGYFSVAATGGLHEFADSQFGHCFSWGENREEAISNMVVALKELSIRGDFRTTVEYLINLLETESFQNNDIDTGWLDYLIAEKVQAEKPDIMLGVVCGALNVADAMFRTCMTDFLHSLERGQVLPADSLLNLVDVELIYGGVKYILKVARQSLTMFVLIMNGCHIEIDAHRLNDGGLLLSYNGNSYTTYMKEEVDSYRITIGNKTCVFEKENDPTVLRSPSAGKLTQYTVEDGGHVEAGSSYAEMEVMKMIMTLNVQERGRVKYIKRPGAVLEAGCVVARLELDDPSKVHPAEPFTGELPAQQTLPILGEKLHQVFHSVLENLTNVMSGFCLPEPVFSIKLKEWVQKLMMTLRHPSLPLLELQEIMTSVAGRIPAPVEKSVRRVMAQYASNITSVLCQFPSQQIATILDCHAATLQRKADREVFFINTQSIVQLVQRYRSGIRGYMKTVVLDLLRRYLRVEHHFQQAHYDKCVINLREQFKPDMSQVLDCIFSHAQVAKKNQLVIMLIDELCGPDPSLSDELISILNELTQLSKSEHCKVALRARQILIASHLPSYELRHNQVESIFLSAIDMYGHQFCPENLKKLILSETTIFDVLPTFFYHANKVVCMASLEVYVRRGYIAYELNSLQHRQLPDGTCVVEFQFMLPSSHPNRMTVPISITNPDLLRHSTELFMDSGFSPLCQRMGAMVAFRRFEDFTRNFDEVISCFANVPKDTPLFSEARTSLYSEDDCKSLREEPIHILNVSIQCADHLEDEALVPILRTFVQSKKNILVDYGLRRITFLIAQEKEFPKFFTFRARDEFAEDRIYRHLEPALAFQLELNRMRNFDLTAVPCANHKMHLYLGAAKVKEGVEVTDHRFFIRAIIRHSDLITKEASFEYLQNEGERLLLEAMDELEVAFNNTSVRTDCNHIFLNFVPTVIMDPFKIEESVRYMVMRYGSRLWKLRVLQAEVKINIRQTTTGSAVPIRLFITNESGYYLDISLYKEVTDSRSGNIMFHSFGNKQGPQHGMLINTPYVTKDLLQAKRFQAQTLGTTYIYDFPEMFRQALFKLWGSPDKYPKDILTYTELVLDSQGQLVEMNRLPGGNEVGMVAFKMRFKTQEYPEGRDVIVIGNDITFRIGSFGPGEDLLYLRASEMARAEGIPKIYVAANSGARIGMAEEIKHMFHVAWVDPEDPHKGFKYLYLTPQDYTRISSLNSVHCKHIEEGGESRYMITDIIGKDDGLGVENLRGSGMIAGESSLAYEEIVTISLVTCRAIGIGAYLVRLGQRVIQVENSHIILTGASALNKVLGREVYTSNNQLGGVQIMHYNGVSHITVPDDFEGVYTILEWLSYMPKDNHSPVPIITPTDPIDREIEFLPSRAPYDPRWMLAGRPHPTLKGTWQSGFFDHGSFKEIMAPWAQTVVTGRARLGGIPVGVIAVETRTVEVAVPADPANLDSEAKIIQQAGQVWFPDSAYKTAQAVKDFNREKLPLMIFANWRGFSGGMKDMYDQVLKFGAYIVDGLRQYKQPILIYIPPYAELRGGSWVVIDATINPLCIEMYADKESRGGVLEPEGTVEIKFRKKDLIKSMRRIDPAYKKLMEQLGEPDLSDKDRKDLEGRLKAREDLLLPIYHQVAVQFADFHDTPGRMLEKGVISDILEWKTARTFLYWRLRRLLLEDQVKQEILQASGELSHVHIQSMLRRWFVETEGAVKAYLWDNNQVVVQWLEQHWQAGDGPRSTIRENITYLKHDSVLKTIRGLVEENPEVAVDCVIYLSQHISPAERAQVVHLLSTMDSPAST

Structure (SMILES)	IC50 [nM]
CCC(C)Nc1ncc(C#Cc2ccc(CC(C)NC(C)=O)cc2)cn1 (stereo not shown) [15.1]	160
CC(=O)NC(C)Cc1ccc(C#Cc2ccc(C(=O)N3CCN(C)CC3)cc2)cc1 (stereo not shown) [Example 8.46]	11300
CC(=O)NC(C)Cc1ccc(C#Cc2ccnc(OC(C)C)n2)cc1 (stereo not shown) [Example 12.18]	7100
CCCOc1ccc(C#Cc2ccc(C[C@H](C)NC(C)=O)cc2)cc1 [Example 23.6]	70
CCCOc1ccc(C#Cc2ccc(CC(C)NC(=O)C3CC3)cc2)cn1 (stereo not shown) [Example 2.70]	800
CCCCOc1ccc(C#Cc2ccc(CC(C)NC(=O)C3CC3)cc2)cc1 (stereo not shown) [Example 14.31]	90
CC(=O)NC(C)Cc1ccc(C#Cc2ccc(C(=O)N(C)Cc3cccnc3)cc2)cc1 (stereo not shown) [Example 8.14]	11500
CC(=O)NC(C)Cc1ccc(C#Cc2ccc(OCC3CC3C)cc2)cc1 (stereo not shown) [Example 9.24]	200
COC(=O)NC(C)Cc1ccc(C#Cc2cnc(N3CCCC3)nc2)cc1 (stereo not shown) [Example 13.34]	4700
CC(=O)NC(C)Cc1ccc(C#Cc2ccc(Oc3ccccc3)cc2)cc1 (stereo not shown) [Example 2.16]	120
CC(=O)NC(C)Cc1ccc(C#Cc2ccc3cc[nH]c3c2)cc1 (stereo not shown) [Example 3.5]	660
COc1ccc(Oc2ncc(C#Cc3ccc(CC(C)NC(C)=O)cc3)cn2)cc1 (stereo not shown) [Example 12.50]	530
CC(=O)NC(C)CCc1ccc(C#Cc2ccc(OCC(C)C)cc2)cc1 (stereo not shown) [Example 14.13]	220
CC(=O)NC(C)Cc1ccc(C#Cc2ccc(C(=O)N(C)c3ccccc3)cc2)cc1 (stereo not shown) [Example 8.19]	4600
CC(=O)NC(C)Cc1ccc(C#Cc2ccc(N3CCOCC3)cc2)cc1 (stereo not shown) [Example 2.73]	640
CC(=O)NC(C)Cc1ccc(C#Cc2cnc(NC3CC3)nc2)cc1 (stereo not shown) [Example 13.78]	130
CC(=O)NC(C)c1ccc(C#Cc2ccc(OC3CCCC3)cc2)cc1 (stereo not shown) [Example 2.52]	190
COc1cc(C#Cc2ccc(CC(C)NC(=O)C3CC3)cc2)ccn1 (stereo not shown) [Example 2.69]	2000
COc1ccc(C#Cc2ccc(CC(C)NC(C)=O)cc2)c(Cl)c1 (stereo not shown) [Example 3.15]	350
CC(=O)NC(C)Cc1ccc(C#Cc2ccc(C(=O)NCC(F)(F)F)cc2)cc1 (stereo not shown) [Example 1.11]	1700
CC(CNC(=O)C1CC1)c1ccc(C#Cc2cnc(OC3CCC3)nc2)cc1 (stereo not shown) [Example 32.4]	810
CCNc1ncc(C#Cc2ccc(CC(C)NC(=O)N(C)C)cc2)cn1 (stereo not shown) [Example 13.26]	200

Structure (SMILES)	IC50 [nM]
CCOc1ccc(C#Cc2ccc(C(C)NC(=O)CCO)cc2)cc1 (stereo not shown) [Example 4.43]	11000
CC(=O)NC(C)Cc1ccc(C#Cc2ccnc(N3CCN(S(C)(=O)=O)CC3)n2)cc1 (stereo not shown) [Example 11.47]	7400
CC(=O)NC(C)Cc1ccc(C#Cc2cnc(OCc3ccccc3)nc2)cc1 (stereo not shown) [Example 12.20]	530
CCOc1ccc(C#Cc2ccc(CC(C)NC(=O)C3CCC3)cc2)cc1 (stereo not shown) [Example 4.20]	180
CC(Cc1ccc(C#Cc2ccc(OC3CCCC3)nc2)cc1)NC(=O)C1CC1 (stereo not shown) [Example 2.66]	230
CC(Cc1ccc(C#Cc2cnc(N3CC4CCCC4C3)nc2)cc1)NC(=O)C1CC1 (stereo not shown) [Example 13.43]	580
CC(CNC(=O)C(F)F)c1ccc(C#Cc2cnc(OC3CCC3)nc2)cc1 (stereo not shown) [Example 4.79]	160
COc1ccc(Cl)c(C#Cc2ccc(CC(C)NC(C)=O)cc2)c1 (stereo not shown) [Example 3.8]	690
COc1ccc(C#Cc2ccc(CC(C)NC(=O)C3CC3)cc2)cc1 (stereo not shown) [Example 2.56]	960
CCC(C)Nc1ncc(C#Cc2ccc(CC(C)NC(=O)C3CC3)cc2)cn1 (stereo not shown) [Example 13.50]	1500
CC(=O)NC(C)Cc1ccc(C#Cc2cnn(Cc3ccccc3)c2)cc1 (stereo not shown) [Example 2.108]	300
CC(=O)NC(C)Cc1ccc(C#Cc2cnc(NC3CCCC3)nc2)cc1 (stereo not shown) [Example 13.8]	220
CC(Cc1ccc(C#Cc2ccc(OC3CCCC3)cc2)cc1)NC(=O)C1CC1 (stereo not shown) [Example 14.47]	80
CCOc1ccc(C#Cc2ccc(CCNC(C)=O)nc2)cc1 [26.1]	7200
COc1ccc(C#Cc2ccc(CC(C)NC(C)=O)cc2)c(C#N)c1 (stereo not shown) [Example 3.12]	1200
CCC(C)Oc1ccc(C#Cc2ccc(CC(C)NC(C)=O)cc2)cc1 (stereo not shown) [Example 23.9]	140
CC(=O)NC(C)Cc1ccc(C#Cc2cccc(C(C)=O)c2)cc1 (stereo not shown) [Example 1.23]	1000
CCCOc1ccc(C#Cc2ccc(CCNC(C)=O)cc2)cc1 [Example 14.37]	170
CCCOc1ccc(C#Cc2ccc(C(C)(C)CNC(C)=O)cc2)cc1 [Example 2.36]	140
CCOc1ccc(C#Cc2ccc(CC(C)NS(=O)(=O)C3CC3)cc2)cc1 (stereo not shown) [Example 5.1]	250
CC(Cc1ccc(C#Cc2ccc(OC3CC3)cc2)cc1)NC(=O)C1CC1 (stereo not shown) [Example 14.30]	150
CC(=O)NC(C)Cc1ccc(C#Cc2cccc(C(=O)N(C)Cc3ccncc3)c2)cc1 (stereo not shown) [Example 8.39]	13400

Structure (SMILES)	IC50 [nM]
COCCN(C)c1nccc(C#Cc2ccc(CC(C)NC(C)=O)cc2)n1 (stereo not shown) [Example 11.1, N-(1-(4-((2-((2-Methoxyethyl)(methyl)amino)pyrimidin-4-yl)ethynyl)phenyl)propan-2-yl)acetamide]	1200
CCOc1ccc(C#Cc2ccc(CC(C)NC(=O)c3cnon3)cc2)cc1 (stereo not shown) [Example 4.72]	940
CC(=O)NC(C)Cc1ccc(C#Cc2ccnc(N3CCC3)n2)cc1 (stereo not shown) [Example 11.12]	5600
CCOc1ccc(C#Cc2ccc([C@H](C)NC(=O)C3CC3)cc2)cc1 [Example 14.49]	320
CCOc1ccc(C#Cc2ccc(CC(C)NC(=O)C3(C#N)CC3)cc2)cc1 (stereo not shown) [Example 4.63]	920
CCOc1ccc(C#Cc2ccc([C@H](C)NC(C)=O)cc2)cn1 [Example 14.25]	1800
CC(=O)NCCc1ccc(C#Cc2ccc(Oc3ccccc3)nc2)cc1 [Example 14.38]	1400
CCOc1ccc(C#Cc2ccc(CC(C)NC(=O)C3CNC(=O)C3)cc2)cc1 (stereo not shown) [Example 4.32]	440
CCCOc1ccc(C#Cc2ccc(CC(C)NC(C)=O)cc2)cc1 (stereo not shown) [Example 24.1, N-{1-Methyl-2-[4-(4-propoxy-phenylethynyl)-phenyl]-ethyl}-acetamide]	70
COCCOc1ccc(C#Cc2ccc(CC(C)NC(C)=O)cc2)cc1 (stereo not shown) [Example 9.4]	610
CC(=O)NC(C)Cc1ccc(C#Cc2cnc(NCc3ccc(C)cc3)nc2)cc1 (stereo not shown) [Example 13.79]	110
CC(=O)NC(C)Cc1ccc(C#Cc2ccc(-c3ccc(F)cc3)cn2)cc1 (stereo not shown) [Example 1.16]	120
CC(=O)NC(C)Cc1ccc(C#Cc2cnc(NCC3CC3(C)C)nc2)cc1 (stereo not shown) [Example 13.67]	660
CC(=O)NC(C)Cc1ccc(C#Cc2cnc(OCc3cc(C)on3)nc2)cc1 (stereo not shown) [Example 12.14]	2500
CCOc1ccc(C#Cc2ccc(C(C)NC(C)=O)cc2)cc1 (stereo not shown) [Example 14.51]	400
CC(=O)NC(C)Cc1ccc(C#Cc2cnc(OC(C)C)nc2)cc1 (stereo not shown) [Example 12.21]	380
CC(=O)NC(C)Cc1ccc(C#Cc2ccnc(NC(C)C3CC3)n2)cc1 (stereo not shown) [Example 11.19]	5900
CC(=O)NC(C)Cc1ccc(C#Cc2cnc(OCC3(C)CC3)nc2)cc1 (stereo not shown) [Example 12.13]	430
CC(=O)NC(C)Cc1ccc(C#Cc2ccnc(N(C)CC(F)(F)F)n2)cc1 (stereo not shown) [Example 11.33]	680
CCOc1cc(C#Cc2ccc(CC(C)NC(C)=O)cc2)ncn1 (stereo not shown) [17.1]	1900
CC(=O)NC(C)Cc1ccc(C#Cc2cnc(NC3CCC3)nc2)cc1 (stereo not shown) [Example 13.12]	110
CCOc1ccc(C#Cc2ccc(CC(C)NC(=O)[C@H](C)OC)cc2)cc1 (stereo partly shown) [Example 4.50]	6300

Structure (SMILES)	IC50 [nM]
CC(=O)NC(C)Cc1ccc(C#Cc2cnn(-c3ccccc3)c2)cc1 (stereo not shown) [Example 2.79]	450
CCOc1cc(C#Cc2ccc(C(C)NC(C)=O)cc2)ccn1 (stereo not shown) [Example 2.102]	580
CCOc1ccc(C#Cc2ccc(CC(C)NC(=O)c3oc(C)nc3C)cc2)cc1 (stereo not shown) [Example 4.57]	990
CCOc1cc(C#Cc2ccc(CC(C)NC(=O)C3CC3)cc2)ccn1 (stereo not shown) [Example 2.60]	690
C=CC(=O)NC(C)Cc1ccc(C#Cc2ccc(OCC)cc2)cc1 (stereo not shown) [Example 4.8]	460
CC(=O)NC(C)c1ccc(C#Cc2cccc(OCc3ccccc3)c2)cc1 (stereo not shown) [Example 2.103]	500
CC(Cc1ccc(C#Cc2cnc(NCc3ccccc3)nc2)cc1)NC(=O)C1CC1 (stereo not shown) [Example 13.54]	200
CC(=O)NC(C)Cc1ccc(C#Cc2ccc(OCCn3ccnc3)cc2)cc1 (stereo not shown) [Example 9.37]	520
CC(=O)NC(C)Cc1ccc(C#Cc2cnc(OC3CCOC3)nc2)cc1 (stereo not shown) [Example 12.10]	630
CCOc1ccc(C#Cc2ccc(CC(C)NC(=O)N(C)C)cc2)cc1 (stereo not shown) [Example 7.2]	190
CCOc1ccc(C#Cc2ccc(CC(C)NC(=O)CF)cc2)cc1 (stereo not shown) [Example 4.31]	410
CC(=O)NCC(C)(C)c1ccc(C#Cc2cnc(NC3CCC3)nc2)cc1 [Example 2.33]	270
CC(=O)NC(C)Cc1ccc(C#Cc2cccc(C(=O)N3CCC(C(=O)OC(C)(C)C)C3)c2)cc1 (stereo not shown) [Example 8.49]	22000
CC(=O)NC(C)Cc1ccc(C#Cc2ccc3ccccc3c2)cc1 (stereo not shown) [Example 1.6]	880
CC(=O)NC(C)Cc1ccc(C#Cc2cccc(OC(C)C)c2)cc1 (stereo not shown) [Example 1.27]	550
CCOc1ccc(C#Cc2ccc(CC(C)NS(C)(=O)=O)cc2)cc1 (stereo not shown) [Example 5.4]	330
CCCC(=O)NC(C)Cc1ccc(C#Cc2ccc(OCC)cc2)cc1 (stereo not shown) [Example 4.1, N-(1-(4-((4-ethoxyphenyl)ethynyl)phenyl)propan-2-yl)butyramide]	210
COC(=O)CNc1ncc(C#Cc2ccc(CC(C)NC(C)=O)cc2)cn1 (stereo not shown) [Example 13.5]	1400
CC(=O)NC(C)Cc1ccc(C#Cc2ccc(C3CC3)cn2)cc1 (stereo not shown) [Example 2.80]	740
